This is an account of results in BindingDB's records for patent US12319672 (Idorsia Pharmaceuticals, 2025).

A value given as a limit tells only on which side of the number the result lay.

The term IC50 denotes the concentration at which inhibition is half-maximal.

Galectin-1, sequence (P09382 whole entry): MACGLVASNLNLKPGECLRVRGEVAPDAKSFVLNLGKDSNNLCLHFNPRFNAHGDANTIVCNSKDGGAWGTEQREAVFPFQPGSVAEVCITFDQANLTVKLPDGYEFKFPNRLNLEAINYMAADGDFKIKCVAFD
Galectin-3, sequence (P17931 whole entry): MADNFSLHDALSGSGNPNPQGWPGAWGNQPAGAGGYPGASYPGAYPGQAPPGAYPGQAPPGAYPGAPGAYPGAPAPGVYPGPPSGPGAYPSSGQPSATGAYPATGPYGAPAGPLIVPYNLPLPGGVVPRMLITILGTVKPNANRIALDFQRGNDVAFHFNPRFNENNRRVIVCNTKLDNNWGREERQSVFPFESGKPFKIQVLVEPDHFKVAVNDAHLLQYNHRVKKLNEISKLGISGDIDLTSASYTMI

The first experiment has as its target Galectin-1 (Homo sapiens, UniProt P09382). Briefly: Inhibitory Activity Assay. The method, then: (§1) The inhibitory activity of compounds is determined in competitive binding assays. This spectrophotometric assay measures the binding of biotinylated human Gal-3 (hGal-3) or human Gal-1 (hGal-1), respectively, to a microplate-adsorbed glycoprotein, asialofetuin (ASF) (Proc Natl Acad Sci USA. 2013 Mar. 26; 110(13):5052-7.). Alternatively, and preferably, a human Gal-1 version in which all six cysteines are substituted by serines may be used.Briefly, compounds are serially diluted in DMSO (working dilutions). ASF-coated 384 well plates are supplemented with 22.8 μL/well of biotinylated hGal-3 or hGal-1 in assay buffer (i.e. 300-1000 ng/mL biotinylated hGal-3 or hGal-1) to which 1.2 μL of compound working dilutions are added and mixed.Plates are incubated for 3 hours at 4° C., then washed with cold assay buffer (3×50 uL), incubated for 1 hour with 25 μL/well of a streptavidin-peroxidase solution (diluted in assay buffer to 80 ng/mL) at 4° C., followed by further washing steps with assay buffer (3×50 uL). Finally, 25 μL/well of ABTS substrate is added.
In the case of `CO[C@@H]1[C@@H](n2cc(-c3cc(F)c(F)c(F)c3)nn2)[C@@H](O)[C@@H](CO)O[C@@H]1CC1=NOC(C(C)(C)O)C1` (some centres undefined) [US12319672, Example 1.68], the IC50 came out at 5090 nM.

Take `CO[C@@H]1[C@@H](n2cc(-c3ccc(Br)c(F)c3F)nn2)[C@@H](O)[C@@H](CO)O[C@@H]1Cc1cc(C2CCN(S(C)(=O)=O)CC2)on1` [US12319672, Example 1.155]: the IC50 is 1050 nM.

Regarding `CO[C@@H]1[C@@H](n2cc(-c3ccc(Cl)c(F)c3F)nn2)[C@@H](O)[C@@H](CO)O[C@@H]1Cc1cc(C2CCN(C(C)=O)CC2)on1` [US12319672, Example 1.163], the midpoint of inhibition, the IC50, lay at 710 nM.

As to `CO[C@@H]1[C@@H](n2cc(-c3cc(F)c(Cl)c(F)c3)nn2)[C@@H](O)[C@@H](CO)O[C@@H]1Cc1cc(C2CCN(C(C)=O)CC2)on1` [US12319672, Example 1.167], the IC50 stood at 910 nM.

For the compound `CO[C@@H]1[C@@H](n2cc(-c3ccc(F)c(F)c3F)nn2)[C@@H](O)[C@@H](CO)O[C@@H]1Cc1cc(-c2ccc(F)c(F)c2F)on1` [US12319672, Example 1.230], the IC50 was over 100000 nM.

As to `CO[C@@H]1[C@@H](n2cc(-c3ccc(F)c(F)c3F)nn2)[C@@H](O)[C@@H](CO)O[C@@H]1Cc1cc(C2(C#N)CCCC2)on1` [US12319672, Example 1.277], the IC50 is 1470 nM.

The compound `CO[C@@H]1[C@@H](n2cc(-c3ccc(Cl)c(F)c3F)nn2)[C@@H](O)[C@@H](CO)O[C@@H]1Cc1cc(C2(C#N)CCCC2)on1` [US12319672, Example 1.279] displayed an IC50 of 3210 nM.

The compound `Cc1nc2ccc(-c3cn([C@H]4[C@@H](O)[C@@H](CO)O[C@H](CC5CC(C6CCN(C(=O)OC(C)(C)C)CC6)=NO5)[C@@H]4O)nn3)cc2s1` (some centres undefined) [US12319672, Example 1.299] returned an IC50 of 3840 nM.

The compound `CC(C)(C)c1cc(C[C@H]2O[C@H](CO)[C@H](O)[C@H](n3cc(-c4ccc(Cl)c(F)c4F)nn3)[C@H]2O)on1` [US12319672, Example 1.302] returned an IC50 of 1000 nM.

For `CO[C@@H]1[C@@H](n2cc(-c3ccc(C)c(F)c3F)nn2)[C@H]2OC(C)(C)OC[C@H]2O[C@@H]1Cc1cc(C(C)c2ccccc2)no1` (some centres undefined) [US12319672, Example 1.341], the IC50 was determined as 15700 nM.

`CO[C@@H]1[C@@H](n2cc(-c3ccc(C)c(F)c3F)nn2)[C@@H](O)[C@@H](CO)O[C@@H]1Cc1cc(C2(O)CCC2)no1` [US12319672, Example 2.57]: the IC50 was determined as 1450 nM.

In turn, `CC(=O)N1CCC(c2cc(C[C@H]3O[C@H](CO)[C@H](O)[C@H](n4cc(-c5cc(F)c(F)c(F)c5)nn4)[C@H]3O)no2)CC1` [US12319672, Example 3.17] registered an IC50 of 960 nM.

Another experiment addresses Galectin-3 (Homo sapiens, UniProt P17931). Briefly: Inhibitory Activity Assay. The method, then:
as §1
In the case of `CO[C@@H]1[C@@H](n2cc(-c3cc(F)c(F)c(F)c3)nn2)[C@@H](O)[C@@H](CO)O[C@@H]1CC1=NOC(C(C)(C)O)C1` (some centres undefined) [US12319672, Example 1.68], half-maximal inhibition (IC50) required 470 nM.

As to `CO[C@@H]1[C@@H](n2cc(-c3ccc(Br)c(F)c3F)nn2)[C@@H](O)[C@@H](CO)O[C@@H]1Cc1cc(C2CCN(S(C)(=O)=O)CC2)on1` [US12319672, Example 1.155], the IC50 was 22 nM.

`CO[C@@H]1[C@@H](n2cc(-c3ccc(Cl)c(F)c3F)nn2)[C@@H](O)[C@@H](CO)O[C@@H]1Cc1cc(C2CCN(C(C)=O)CC2)on1` [US12319672, Example 1.163] yielded an IC50 of 43 nM.

Take `CO[C@@H]1[C@@H](n2cc(-c3cc(F)c(Cl)c(F)c3)nn2)[C@@H](O)[C@@H](CO)O[C@@H]1Cc1cc(C2CCN(C(C)=O)CC2)on1` [US12319672, Example 1.167]: the IC50 amounted to 40 nM.

As for `CO[C@@H]1[C@@H](n2cc(-c3ccc(F)c(F)c3F)nn2)[C@@H](O)[C@@H](CO)O[C@@H]1Cc1cc(-c2ccc(F)c(F)c2F)on1` [US12319672, Example 1.230], 540 nM corresponded to half-maximal inhibition (IC50).

`CO[C@@H]1[C@@H](n2cc(-c3ccc(F)c(F)c3F)nn2)[C@@H](O)[C@@H](CO)O[C@@H]1Cc1cc(C2(C#N)CCCC2)on1` [US12319672, Example 1.277] registered an IC50 of 140 nM.

For the compound `CO[C@@H]1[C@@H](n2cc(-c3ccc(Cl)c(F)c3F)nn2)[C@@H](O)[C@@H](CO)O[C@@H]1Cc1cc(C2(C#N)CCCC2)on1` [US12319672, Example 1.279], the half-maximal inhibitory concentration (IC50) was 120 nM.

The compound `Cc1nc2ccc(-c3cn([C@H]4[C@@H](O)[C@@H](CO)O[C@H](CC5CC(C6CCN(C(=O)OC(C)(C)C)CC6)=NO5)[C@@H]4O)nn3)cc2s1` (some centres undefined) [US12319672, Example 1.299] came in with an IC50 of 4040 nM.

The compound `CC(C)(C)c1cc(C[C@H]2O[C@H](CO)[C@H](O)[C@H](n3cc(-c4ccc(Cl)c(F)c4F)nn3)[C@H]2O)on1` [US12319672, Example 1.302] had an IC50 of 36 nM.

In the case of `CO[C@@H]1[C@@H](n2cc(-c3ccc(C)c(F)c3F)nn2)[C@H]2OC(C)(C)OC[C@H]2O[C@@H]1Cc1cc(C(C)c2ccccc2)no1` (some centres undefined) [US12319672, Example 1.341], the IC50 was determined as 200 nM.

The compound `CO[C@@H]1[C@@H](n2cc(-c3ccc(C)c(F)c3F)nn2)[C@@H](O)[C@@H](CO)O[C@@H]1Cc1cc(C2(O)CCC2)no1` [US12319672, Example 2.57] registered an IC50 of 81 nM.

Compound `CC(=O)N1CCC(c2cc(C[C@H]3O[C@H](CO)[C@H](O)[C@H](n4cc(-c5cc(F)c(F)c(F)c5)nn4)[C@H]3O)no2)CC1` [US12319672, Example 3.17] had a 50% inhibitory concentration (IC50) of 46 nM.
